Measurements: patent publication US8288549B2, “Glycine B antagonist” (Merz Pharma GmbH & Co. KGaA, priority 2008, dated 2012)

Assays:
[1] = target: T1, glycine binding pocket of the NMDA receptor (Rattus norvegicus, UniProt P35439); test: [3H]-MDL-105,519 displacement studies on rat cortical membranes; details: displacement of 2 nM [3H]-MDL-105,519, rat cortical membranes, 4° C., 1 h; read-out: NMDA-MDL 105519-r-CTX - IC50
T1 construct: The cortex is dissected out and processed as described by Parsons, et al; from tissue; host or cells: rat cerebral cortex membranes (male Sprague-Dawley)
Procedure: [^3]MDL-105,519 Displacement Studies
For the evaluation of the binding affinity of the test compounds on the glycine binding pocket of the NMDA receptor, [^3H]-MDL-105,519 (GE Healthcare, Freiburg, Germany) displacement studies are performed using a 96-well plate robotic platform. MDL-105,519 (Baron et al., J Pharmacol Exp Ther 1996, 279(1), 62-68; Baron et al., European Journal of Pharmacology, 1997, 323(2-3), 181-192; Hoffner & Wanner, Neuroscience Letters, 1997, 226(2), 79-82) is a selective, high affinity antagonist at the NMDA receptor glycine site.
Tissue preparation is performed according to Foster & Wong (Br J Pharmacol, 1987, 91, 403-409) with some modifications. Anaesthetised male Sprague-Dawley rats (200-250 g, Janvier, Le Genest-Isle, France) are decapitated and their brains removed rapidly. The cortex is dissected out and processed as described by Parsons, et al. (J Pharmacol Exp Ther, 1997, 283(3), 1264-1275). For isolation of the cell membranes, the cortices are homogenized in 20 volumes of ice-cold 0.32 M sucrose (Sigma-Aldrich, Taufkirchen, Germany) using a glass-Teflon homogenizer. The homogenate is centrifuged at 1000×g for 10 minutes, the pellet is discarded and the supernatant centrifuged at 20,000×g for 20 minutes. The resulting pellet is re-suspended in 20 volumes of distilled water and centrifuged for 20 minutes at 8000×g. The supernatant and the buffy coat are then centrifuged three times (48,000×g for 20 minutes) in the presence of 50 mM Tris-HCl, pH 8.0 (assay buffer). All centrifugation steps are carried out at 4° C. After resuspension in 5 volumes of 50 mM Tris-HCl, pH 7.5, the membrane suspension is frozen rapidly at −80° C. On the day of assay, the membranes are thawed and washed four times by resuspension in 50 mM Tris-HCl, pH 7.5, and centrifugation at 48,000×g for 20 minutes. The final pellet is suspended in assay buffer. The amount of protein in the final membrane preparation is determined according to the method of Lowry, et al. (J. Biological Chemistry, 1951, 193, 256-275) with some modifications (Hartree, Analytical Biochemistry, 1972, 48, 422-427). The final protein concentration used for our studies is 400 μg/ml.
A robotic system designed for binding assays (Tecan Deutschland GmbH, Crailsheim, Germany) is loaded with the membrane solution, solutions for bound control (buffer/DMSO 20%), unlabeled glycine (1 mM) for evaluation of non-specific binding, all compounds to be tested (at 20-fold concentrations), radioligand and respective 96-well plates.
Before performing displacement studies, saturation experiments are performed to determine the equilibrium dissociation constant (Kd) of [^3H]-MDL-105,519, which is a parameter for the affinity of the radioligand to the binding site. The protein/receptor concentration is held constant whereas the amount of specific bound radioligand is determined using increasing concentrations of ligand.
On the basis of the saturation experiments, a final [^3H]-MDL-105,519 concentration of 2 nM is selected. Firstly, the assay plates are loaded with membrane solution and are shaken at 4° C. The mother plates are then prepared by pipetting the compounds (n=4) into assay buffer/20% DMSO to obtain the desired final concentrations. After transferring radioligand into the assay plates, the compounds are added (including the bound and the non-specific binding control). The final DMSO concentration is 1%. The assay plates are incubated and shaken at 4° C. for 1 h, before the mixture is exhausted as rapidly as possible via a vacuum manifold using the Multiscreen HTS glass fibre (type B) filter plates (Millipore, Schwalbach, Germany) under a constant vacuum of 450 mbar. The membranes are washed four times with cold assay buffer (100 μL). […]

[2] = target: T2, NMDA receptor glycine B site (Rattus norvegicus, UniProt P35439); test: Whole cell patch-clamp recordings in cultured rat hippocampal neurons (NMDA/D-Serine evoked currents); format: cell-based; details: NMDA (200 μM) and D-Serine (1 μM), holding potential −70 mV, read-out: NMDA-PC-r-HIC-NAM - IC50
T2 construct: Hippocampi are then isolated from the brains of at least 8 embryos after decapitation; endogenous in cells; host or cells: primary cultured hippocampal neurons from E20 Sprague-Dawley rat embryos, 11-15 DIV
Procedure: Antagonistic potencies of the test compounds are functionally evaluated using electrophysiological whole cell patch-clamp recordings and/or fluorometric intracellular Ca^2+-imaging (FLIPR) screens.
Cell preparation is performed as described by Parsons, et al. (Neuropharmacology, 1998, 37(6), 719-727). The female Sprague-Dawley rat is anaesthetised by placing in a saturated CO2-euthanasia chamber under further quiet CO2-influx. Under these conditions the rat loses consciousness after a few seconds and is then sacrificed by cervical dislocation. After opening the abdominal cavity, embryos (E20) are removed and stored in ice cold Ca^2+- and Mg^2+-free Hank's Buffered Salt Solution (pH 7.3), containing 4 g/l glucose (HBSS-CMF). Hippocampi are then isolated from the brains of at least 8 embryos after decapitation, transferred into ice cold HBSS-CMF and washed 3 to 4 times.
Hippocampi are pre-incubated for 8 min with a 0.66% trypsin (Sigma-Aldrich) and 0.1% (20 U/ml) DNAase solution (Sigma-Aldrich) in Ca^2+-free Phosphate Buffered Saline (PBS-CF) and washed 3 times with HBSS-CMF. Cells are then mechanically dissociated by trituration in a PBS-CF solution containing 0.05% (10 U/ml) DNAase and 0.3% of the trypsin inhibitor ovomucoid (all from Sigma-Aldrich). The cells are then centrifuged at 180×g for 10 minutes, and the cell pellet re-suspended in basal Minimum essential medium (MEM, Invitrogen, Karlsruhe, Germany), again carefully triturated to ensure maximal dissociation and finally plated in the flexiPERM inserts (Thermo Fisher Scientific, Langenselbold, Germany) at a density of 15×10^3 cells/cm^2 (0.5 ml/insert) onto poly-DL-ornithine (Sigma) and mouse laminin (Invitrogen) pre-coated plastic petri dishes. After 1 hour the cells become attached to the bottom of the dish and the inserts may be removed. The cells are then nourished with 2 ml MEM supplemented with 5% foetal calf serum (FCS) and 5% horse serum and incubated at 37° C. with 95% air and 5% CO2 at 95% humidity. After 4 days in vitro (DIV) further glial mitosis is inhibited by adding 10 μl of AraC (5 μM endconcentration). The medium is completely exchanged after an additional 2 DIV and again, but only partly (50%), after 8 DIV. The cells are used for electrophysiological recordings after 11-15 DIV.
Cells are visualised using an inverted microscope and selected for patching based upon their position and morphology. Voltage clamp recordings are made in the whole cell configuration of the patch clamp technique at a holding potential of −70 mV with the aid of an EPC-10 amplifier in combination with pipette manipulator. Patch clamp pipettes are pulled from borosilicate glass using a horizontal puller (P-97 Puller, Sutter Instruments, USA) and, when filled with intracellular solution, have resistances of 1-4 MΩ.
Solutions are delivered via a home-made gravity driven very fast perfusion system (<10 ms) including valves to switch flow on and off in combination with a stepper motor-driven double-barreled theta glass application pipette in order to expose cells to either agonist-free or agonist-containing solutions in presence or absence of antagonist.
The intracellular solution used consists of: 120 mM CsCl, 10 mM EGTA, 1 mM MgCl2, 200 μM CaCl2, 10 mM glucose and 22 mM tetraethyl ammonium chloride (TEA-CL). The corresponding extracellular bath solution contains: 140 mM NaCl, 3 mM KCl, 10 mM glucose, 10 mM HEPES, 1.5 mM CaCl2 and 4.5 mM sucrose (all from Sigma-Aldrich) pH 7.3, and is supplemented with 0.3 μM tetrodotoxin (TTX, Tocris, Bristol, U.K.) to block voltage-activated sodium channels and 0.25 μM bicuculline (Sigma-Aldrich) to block GABAA receptors. […]

SMILES	IC50 [1]	melting point	IC50 [2]
O=C(O)c1cc2cc(Cl)ccc2nc1N[C@@H](Cc1ccncc1)C(=O)O [Example 55, 2-((S)-1-Carboxy-2-pyridin-4-yl-ethylamino)-6-chloro-quinoline-3-carboxylic acid]	4390 nM	155 to 158 °C (dec.)	–
O=C(O)c1cc2cc(Br)cc(Br)c2nc1NC(Cc1ccccc1)C(=O)O (centres unmarked) [Example 56, 6,8-Dibromo-2-(1-carboxy-2-phenyl-ethylamino)-quinoline-3-carboxylic acid]	1730 nM	115 to 117 °C	1240 nM
O=C(O)c1cc2cc(Cl)ccc2nc1N[C@@H](Cc1cccs1)C(=O)O [Example 156, 2-((S)-1-Carboxy-2-thiophen-2-yl-ethylamino)-6-chloro-quinoline-3-carboxylic acid]	1910 nM	> 250 °C (dec.)	–
Cc1cc(Cl)cc2cc(C(=O)O)c(NC(Cc3ccccc3)C(=O)O)nc12 (centres unmarked) [Example 95, 2-(1-Carboxy-2-phenyl-ethylamino)-6-chloro-8-methylquinoline-3-carboxylic acid]	2290 nM	> 145 °C (dec.)	–
CC(c1ccccc1)C(Nc1nc2ccc(Cl)cc2cc1C(=O)O)C(=O)O (stereo not drawn) [Example 31, erythro-2-(1-Carboxy-2-phenyl-propylamino)-6-chloro-quinoline-3-carboxylic acid]	3370 nM	–	–

Continued by falling IC50 [1], values first:

IC50 [1]	melting point	IC50 [2]	SMILES
2490 nM	> 160 °C (dec.)	–	Cc1cc(Cl)cc2cc(C(=O)O)c(NC(Cc3c[nH]c4ccccc34)C(=O)O)nc12 (centres unmarked) [Example 97, 2-[1-Carboxy-2-(1H-indol-3-yl)-ethylamino]-6-chloro-8-methylquinoline-3-carboxylic acid]
2120 nM	–	930 nM	O=C(O)c1cc2cc(Cl)ccc2nc1NC(Cc1c[nH]c2ccc(F)cc12)C(=O)O (centres unmarked) [Example 25, 2-[1-Carboxy-2-(5-fluoro-1H-indol-3-yl)-ethylamino]-6-chloro-quinoline-3-carboxylic acid]
1870 nM	–	1030 nM	O=C(O)c1cc2cc(Cl)ccc2nc1N[C@@H](Cc1ccc(O)c([N+](=O)[O-])c1)C(=O)O [Example 41, 2-[(S)-1-Carboxy-2-(4-hydroxy-3-nitro-phenyl)-ethylamino]-6-chloro-quinoline-3-carboxylic acid]
700 nM	> 200 °C (dec.)	–	O=C(O)c1cc2cc(Cl)ccc2nc1NC(Cc1ccc(Nc2ccnc3ccccc23)cc1)C(=O)O (centres unmarked) [Example 104, 2-{1-Carboxy-2-[4-(quinolin-4-ylamino)-phenyl]-ethylamino}-6-chloro-quinoline-3-carboxylic acid]
410 nM	153 to 159 °C	–	O=C(O)c1cc2cc(Cl)ccc2nc1N[C@@H](Cc1ccccc1)C(=O)O [Example 1, 2-((S)-1-Carboxy-2-phenyl-ethylamino)-6-chloro-quinoline-3-carboxylic acid]
